Results from patent US8617523B2, “Anti-biofilm carbonate compounds for use in oral care compositions” (Colgate-Palmolive Company, priority 2009, dated 2013).
Values after ≈ are worked out from the molar mass of the structure shown.

Assays:
A. naeslundii = assay: Minimal Inhibitory Concentration (MIC) anti-microbial test; assay type: cell-based; details: Actinomyces naeslundii; single species of A. naeslundii biofilm; read-out: MIC (Minimum Inhibitory Concentration, bactericidal)
Method: The anti-microbial test was measured according to the SOP No. ATO-5308-00 for determination of Minimal Inhibitory Concenctration (MIC).

A. naeslundii biofilm = assay: crystal violet assay, anti-biofilm (MBEC); assay type: cell-based, Actinomyces naeslundii; details: single species of A. naeslundii biofilm

CC(C)C(O)C(C)(C)COC(=O)OC1CCCC1 (stereo not drawn)
MIC (A. naeslundii): 625 µg/mL (≈ 2420 µM)
MBEC (Minimum Biofilm Eradication Concentration, anti-biofilm) (A. naeslundii biofilm): 156 ppm

CCCCC(CC)COC(=O)OCCCCCCO (stereo not drawn)
MIC (A. naeslundii): 78 µg/mL (≈ 284 µM)
MBEC (Minimum Biofilm Eradication Concentration, anti-biofilm) (A. naeslundii biofilm): 39 ppm

CC(CCCC(C)(C)O)CCOC(=O)Oc1ccccc1 (stereo not drawn)
MIC (A. naeslundii): 156 µg/mL (≈ 530 µM)
MBEC (Minimum Biofilm Eradication Concentration, anti-biofilm) (A. naeslundii biofilm): 78 ppm
